# Experimental data reported in patent US20080234233A1, “MEDICAMENT FOR TREATMENT OF NEURODEGENERATIVE DISEASES” (INSTITUTE OF MEDICINAL MOLECULAR DESIGN INC., priority 2002, published 2008).
# Key:
# NF-κ B activation = test: Inhibitory activity of NF-κB activation, luciferase reporter assay under TNF-α stimulation in HepG2; format: cell-based, human; details: HepG2, TNF-α 40 ng/ml, 4 hours; for inhibition at 1 µg/mL / inhibition at 10 µg/mL: Homo sapiens, read-out: Inhibitory rate against NF-κB activation (%)
# Outline: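 HepG2 cells transiently transfected with luciferase reporter carrying five tandem NF-κB binding sites, then stimulated with TNF-α (40 ng/ml) ± compound for 4 hours. Luminescent luciferase activity measured; inhibition expressed relative to activity without compound.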
# AP-1 activation = test: Inhibition against AP-1 activation by TNF α stimulation, luciferase reporter assay in HeLa; format: cell-based, human; details: TNF-α 40 ng/ml, 4 hours
# Description: Measurement of Inhibition Against AP-1 Activation by TNF α Stimulation
# Using a transfection reagent(Effectene; QIAGEN), the human uterine cancer cell strain HeLa was transfected with a plasmid(pAP-1-Luc Reporter Plasmid: […]) integrated with an oligonucleotide having seven tandem copies of AP-1 binding sequences(TGACTAA) on an upstream region of firefly luciferase gene(Luc) according to the QIAGEN's protocol, and the cells were incubated for 6 to 24 hours. After addition of TNF-α (40 ng/ml) in the presence or absence of a test compound, the cells were incubated for 4 hours, and intracellular luciferase activity was measured by using PicaGene LT(TOYO INK MFG Co., Ltd.) and a chemical luminescence measurement apparatus([…]luor Plus; TECAN). The inhibitory ratio was measured as a ratio relative to the value of the luciferase activity in the absence of the test compound.
Inhibitory rate against NF-κB activation (%) (NF-κ B activation; Drug concentration at 10 μg/mL),Inhibitory rate against NF-κB activation (%) (NF-κ B activation; Drug concentration at 1 μg/mL),Structure (SMILES),other results
67.0%,,O=C(Nc1nc(-c2ccccc2)c(-c2ccccc2)s1)c1cc(Br)ccc1O [compound 211],Inhibitory rate against AP-1 activation(%) (AP-1 activation; Drug concentration at 10 μg/mL): 29.7%
,,"O=C(Nc1nc(-c2ccccc2)c(C(=O)O)s1)c1cc(Br)ccc1O [compound 217, 2-(5-bromo-2-hydroxybenzoyl)amino-4-phenylthiazole-5-carboxylic acid]","inhibition at 1 µg/mL (AP-1 activation; Homo sapiens, Drug concentration at 1 μg/mL, read-out: Inhibitory rate against AP-1 activation(%)): 21.7%; inhibition at 10 µg/mL (AP-1 activation; Homo sapiens, Drug concentration at 10 μg/mL, read-out: Inhibitory rate against AP-1 activation(%)): 55.3%"
,,"CC(C)(C)c1cc(NC(=O)c2cc(Cl)ccc2O)cc(C(C)(C)C)c1 [compound 138, N-{3,5-bis[(1,1-dimethyl)ethyl]phenyl}-5-chloro-2-hydroxybenzamide]",inhibition at 1 µg/mL (NF-κ B activation; Drug concentration at 1 μg/mL): 89.6%; inhibition at 10 µg/mL (NF-κ B activation; Drug concentration at 10 μg/mL): 98.1%
99.5%,96.3%,COc1ccc(Oc2ccc(C(F)(F)F)cc2NC(=O)c2cc(Cl)ccc2O)cc1 [compound 253],
94.2%,80.7%,CCOC(=O)c1sc(NC(=O)c2cc(Br)ccc2O)nc1-c1ccccc1 [compound 218],
99.4%,91.0%,COc1ccc(C(C)(C)C)cc1NC(=O)c1cc(Cl)ccc1OC(C)=O [compound 136],
,,"Cc1nc(NC(=O)c2cc(Br)ccc2O)sc1-c1cccc(C(F)(F)F)c1 [compound 194, 5-Bromo-N-{4-methyl-5-[3-(trifluoromethyl)phenyl]thiazol-2-yl}-2-hydroxy-benzamide]",inhibition at 10 µg/mL (NF-κ B activation; Drug concentration at 10 μg/mL): 71.7%
99.2%,96.5%,CC(=O)Oc1ccc(Cl)cc1C(=O)Nc1cc(C(F)(F)F)cc(C(F)(F)F)c1 [compound 5],
,,"CC(=O)c1ccc(O)c(C(=O)Nc2cc(C(F)(F)F)cc(C(F)(F)F)c2)c1 [compound 12, 5-Acetyl-N-[3,5-bis(trifluoromethyl)phenyl]-2-hydroxybenzamide]",inhibition at 1 µg/mL (NF-κ B activation; Drug concentration at 1 μg/mL): 86.3%; inhibition at 10 µg/mL (NF-κ B activation; Drug concentration at 10 μg/mL): 99.2%
,,"N#CC(C#N)=Cc1ccc(O)c(C(=O)Nc2cc(C(F)(F)F)cc(C(F)(F)F)c2)c1 [compound 16, N-[3,5-Bis(trifluoromethyl)phenyl]-5-(2,2-dicyanoethen-1-yl)-2-hydroxybenzamide]",inhibition at 1 µg/mL (NF-κ B activation; Drug concentration at 1 μg/mL): 42.7%; inhibition at 10 µg/mL (NF-κ B activation; Drug concentration at 10 μg/mL): 99.4%
69.7%,,Cc1cnc(NC(=O)c2cc(Br)ccc2O)s1 [compound 190],
96.8%,94.0%,CC(=O)Oc1ccc(Cl)cc1C(=O)Nc1cc(C(F)(F)F)ccc1C(F)(F)F [compound 82],
84.7%,26.6%,O=C(Nc1cc(-c2ccccc2)[nH]n1)c1cc(Br)ccc1O [compound 233],
95.1%,84.2%,O=C(Nc1cccc(Br)n1)c1cc(Cl)ccc1O [compound 243],
97.1%,88.3%,Cc1ccc(C)c(NC(=O)c2cc(Cl)ccc2O)c1 [compound 153],
,,"O=C(Nc1nc(-c2c(F)c(F)c(F)c(F)c2F)cs1)c1cc(Cl)ccc1O [compound 266, 5-Chloro-2-hydroxy-N-[4-(2,3,4,5,6-pentafluorophenyl)thiazol-2-yl]benzamide]",inhibition at 1 µg/mL (NF-κ B activation; Drug concentration at 1 μg/mL): > 99.9%
98.3%,94.7%,CON=C(C)c1ccc(O)c(C(=O)Nc2cc(C(F)(F)F)cc(C(F)(F)F)c2)c1 [compound 14],
,,"O=C(Nc1cc(C(F)(F)F)ccc1Cl)c1cc(Cl)ccc1O [compound 88, 5-chloro-N-[2-chloro-5-(trifluoromethyl)phenyl]-2-hydroxybenzamide]",inhibition at 1 µg/mL (NF-κ B activation; Drug concentration at 1 μg/mL): 94.8%; inhibition at 10 µg/mL (NF-κ B activation; Drug concentration at 10 μg/mL): 97.1%
97.6%,94.2%,CCCCOc1ccc(OCCCC)c(NC(=O)c2cc(Cl)ccc2O)c1 [compound 161],
98.5%,59.7%,N#CC(=Cc1ccc(O)c(C(=O)Nc2cc(C(F)(F)F)cc(C(F)(F)F)c2)c1)C(=O)O [compound 18],
96.4%,93.7%,Cc1ccc(-c2ccccc2)cc1NC(=O)c1cc(Cl)ccc1O [compound 172],
,,"CC(C)(C)c1csc(NC(=O)c2cc(Br)ccc2O)n1 [compound 185, 5-Bromo-N-{4-[(1,1-dimethyl)ethyl]thiazol-2-yl}-2-hydroxybenzamide]",inhibition at 1 µg/mL (NF-κ B activation; Drug concentration at 1 μg/mL): 88.4%; inhibition at 10 µg/mL (NF-κ B activation; Drug concentration at 10 μg/mL): 95.2%
,,"O=C(Nc1cc(C(F)(F)F)cc(C(F)(F)F)c1)c1cc(C(=O)N2CCCCC2)ccc1O [compound 39, N-[3,5-Bis(trifluoromethyl)phenyl]-2-hydroxy-5-(piperidine-1-carbonyl)benzamide]",inhibition at 1 µg/mL (NF-κ B activation; Drug concentration at 1 μg/mL): 23.7%; inhibition at 10 µg/mL (NF-κ B activation; Drug concentration at 10 μg/mL): 82.2%
,,"O=C(Nc1nc(-c2ccco2)c(-c2ccco2)o1)c1cc(Br)ccc1O [compound 236, 5-Bromo-N-[4,5-bis(furan-2-yl)oxazol-2-yl]-2-hydroxybenzamide]",inhibition at 1 µg/mL (NF-κ B activation; Drug concentration at 1 μg/mL): 21.4%; inhibition at 10 µg/mL (NF-κ B activation; Drug concentration at 10 μg/mL): 56%
,>99.9%,Cc1cc(Br)cc(C(=O)Nc2cc(C(F)(F)F)cc(C(F)(F)F)c2)c1O [compound 258],
,,"O=C(Nc1cc(C(F)(F)F)cc(C(F)(F)F)c1)c1scc(Br)c1O [compound 74, 4-Bromo-3-hydroxy-N-[3,5-bis(trifluoromethyl)phenyl]thiophene-2-carboxamide]",inhibition at 1 µg/mL (NF-κ B activation; Drug concentration at 1 μg/mL): 64%; inhibition at 10 µg/mL (NF-κ B activation; Drug concentration at 10 μg/mL): 97.5%
,,"O=C(Nc1nc(-c2cccc(C(F)(F)F)c2)cs1)c1cc(Cl)ccc1O [compound 265, 5-Chloro-2-hydroxy-N-{4-[3-(trifluoromethyl)phenyl]thiazol-2-yl}benzamide]",inhibition at 1 µg/mL (NF-κ B activation; Drug concentration at 1 μg/mL): > 99.9%
94.3%,81.5%,O=C(Nc1cc(C(F)(F)F)cc(C(F)(F)F)c1)c1cc(F)ccc1O [compound 3],
95.1%,91.4%,O=C(Nc1cc(Cl)cc(Cl)c1)c1cc(Br)cc(Br)c1O [compound 128],

Structure (SMILES),Inhibitory rate against NF-κB activation (%) (NF-κ B activation; Drug concentration at 10 μg/mL),Inhibitory rate against NF-κB activation (%) (NF-κ B activation; Drug concentration at 1 μg/mL),other results
O=C(Nc1cc(C(F)(F)F)cc(C(F)(F)F)c1)c1ccc(O)c(C(=O)Nc2cc(C(F)(F)F)cc(C(F)(F)F)c2)c1 [compound 37],94.5%,,
O=C(Nc1cc(C(F)(F)F)cc(C(F)(F)F)c1)c1c(O)c(Cl)cc(Cl)c1Cl [compound 61],97.2%,95.1%,
O=C(Nc1cc(C(F)(F)F)ccc1Oc1ccc(Cl)cc1)c1cc(Cl)ccc1O [compound 118],99.5%,95.0%,
O=C(Nc1cc(Br)cc(C(F)(F)F)c1)c1cc(Cl)ccc1O [compound 104],99.2%,97.2%,
O=C(Nc1cc(C(F)(F)F)ccc1N1CCOCC1)c1cc(Cl)ccc1O [compound 106],92.1%,92.3%,
O=C(Nc1cc(Br)cc(C(F)(F)F)c1)c1cc(Br)ccc1O [compound 86],98.7%,96.7%,
O=C(Nc1cc(C(F)(F)F)ccc1OCC(F)(F)F)c1cc(Cl)ccc1O [compound 113],96.2%,90.5%,
Cc1ccc(Oc2ccc(C(F)(F)F)cc2NC(=O)c2cc(Cl)ccc2O)cc1 [compound 117],92.6%,92.8%,
O=C(Nc1cc(C(F)(F)F)ccc1F)c1cc(Cl)ccc1O [compound 87],95.9%,93.1%,
O=C(Nc1cc(C(F)(F)F)cc(C(F)(F)F)c1)c1cc(Br)c(O)cc1O [compound 54],86.5%,,
CCNC(=O)c1sc(NC(=O)c2cc(Br)ccc2O)nc1-c1ccccc1 [compound 221],84.0%,51.9%,
CSc1ccc(C(F)(F)F)cc1NC(=O)c1cc(Cl)ccc1O [compound 96],99.1%,94.6%,
O=C(Nc1nc(-c2ccccc2)c(C(=O)NCCc2ccccc2)s1)c1cc(Br)ccc1O [compound 223],60.4%,33.3%,
COc1cc(NC(=O)c2cc(Cl)ccc2O)cc(C(F)(F)F)c1 [compound 105],97.5%,94.6%,
CC(C)(C)c1cc(NC(=O)c2cc(Br)ccc2O)cc(C(C)(C)C)c1 [compound 140],82.0%,70.9%,
